Results: patent US12384797B2, “Thioeno[3,2-b] pyridin-7-amine compounds for treating familial dysautonomia” (PTC THERAPEUTICS, INC., priority 2019, dated 2025)

Tested on: Elongator complex protein 1 (ELP1, also referred to as IKBKAP)
Experiment: IKBKAP-HTRF assay (IKBKAP protein in lysates of FD patient-derived fibroblasts)
Type: cell-based, human
Conditions: 48 hours incubation, 7-point concentration curve
Summary of the method: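 FD patient-derived fibroblasts (10,000/well) were treated 48 h at 37 °C with a 7-point, 3.16-fold compound series in triplicate, then lysed. IKBKAP was read by sandwich HTRF (donor/acceptor anti-IKAP antibodies, overnight at 4 °C, 665/620 nm). MFI is ΔF over vehicle ΔF; EC2x is the concentration giving twice the vehicle IKBKAP level.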

SMILES | EC2x for IKBKAP protein expression (concentration producing two times the amount of IKBKAP protein vs DMSO vehicle control) | MFI (maximum fold increase in IKBKAP protein abundance relative to the vehicle control)
C[C@H](N)Cc1sc2c(NCc3cccs3)cc(Cl)nc2c1Cl [Compound 52, 2-[(2S)-2-aminopropyl]-3,5-dichloro-N-[(thiophen-2-yl)methyl]thieno[3,2-b]pyridin-7-amine] | ***** (≤0.005 μM is indicated by five stars (*****)) | ***** (>4.9 is indicated by five stars (*****))
C[C@H](N)Cc1sc2c(NCc3cccs3)cc(Cl)nc2c1Br [Compound 53, 2-[(2S)-2-aminopropyl]-3-bromo-5-chloro-N-[(thiophen-2-yl)methyl]thieno[3,2-b]pyridin-7-amine] | ***** (≤0.005 μM is indicated by five stars (*****)) | ***** (>4.9 is indicated by five stars (*****))
Cc1c(C[C@H](C)N)sc2c(NCc3cccs3)cc(C#N)nc12 [Compound 54, 2-[(2S)-2-aminopropyl]-3-methyl-7-{[(thiophen-2-yl)methyl]amino}thieno[3,2-b]pyridine-5-carbonitrile] | ***** (≤0.005 μM is indicated by five stars (*****)) | ***** (>4.9 is indicated by five stars (*****))
Cc1c([C@H](C)N)sc2c(NCc3cccs3)cc(Cl)nc12 [Compound 55, 2-[(1S)-1-aminoethyl]-5-chloro-3-methyl-N-[(thiophen-2-yl)methyl]thieno[3,2-b]pyridin-7-amine] | **** (between >0.005 μM and ≤0.02 μM is indicated by four stars (****)) | **** (between >3.9 and ≤4.9 is indicated by four stars (****))
Cc1c([C@@H](C)N)sc2c(NCc3cccs3)cc(Cl)nc12 [Compound 56, 2-[(1R)-1-aminoethyl]-5-chloro-3-methyl-N-[(thiophen-2-yl)methyl]thieno[3,2-b]pyridin-7-amine] | * (An EC2x>1 μM is indicated by one star (*)) | * (An MFI≤1.9 is indicated by one star (*))
Cc1c(C[C@H](C)N)sc2c(NCc3nccs3)cc(Cl)nc12 [Compound 57, 2-[(2S)-2-aminopropyl]-5-chloro-3-methyl-N-[(1,3-thiazol-2-yl)methyl]thieno[3,2-b]pyridin-7-amine] | ***** (≤0.005 μM is indicated by five stars (*****)) | ***** (>4.9 is indicated by five stars (*****))
Cc1c(C[C@@H](N)CO)sc2c(NCc3ccco3)cc(Cl)nc12 [Compound 58, (2R)-2-amino-3-(5-chloro-7-{[(furan-2-yl)methyl]amino}-3-methylthieno[3,2-b]pyridin-2-yl)propan-1-ol] | ***** (≤0.005 μM is indicated by five stars (*****)) | ***** (>4.9 is indicated by five stars (*****))
Cc1c(C[C@H](N)CF)sc2c(NCc3ccco3)cc(Cl)nc12 [Compound 59, 2-[(2S)-2-amino-3-fluoropropyl]-5-chloro-N-[(furan-2-yl)methyl]-3-methylthieno[3,2-b]pyridin-7-amine] | *** (between >0.02 μM and ≤0.5 μM is indicated by three stars (***)) | ** (between >1.9 and ≤2.9 is indicated by two stars (**))
Cc1cc(NCc2nccs2)c2sc(C[C@H](C)N)c(Cl)c2n1 [Compound 60, 2-[(2S)-2-aminopropyl]-3-chloro-5-methyl-N-[(1,3-thiazol-2-yl)methyl]thieno[3,2-b]pyridin-7-amine] | **** (between >0.005 μM and ≤0.02 μM is indicated by four stars (****)) | ***** (>4.9 is indicated by five stars (*****))
Cc1c(C[C@@H](N)CC(C)C)sc2c(NCc3cccs3)cc(Cl)nc12 [Compound 61, 2-[(2S)-2-amino-4-methylpentyl]-5-chloro-3-methyl-N-[(thiophen-2-yl)methyl]thieno[3,2-b]pyridin-7-amine] | ***** (≤0.005 μM is indicated by five stars (*****)) | ***** (>4.9 is indicated by five stars (*****))
CC(C)C[C@H](N)Cc1sc2c(NCc3nccs3)cc(Cl)nc2c1Br [Compound 62, 2-[(2S)-2-amino-4-methylpentyl]-3-bromo-5-chloro-N-[(1,3-thiazol-2-yl)methyl]thieno[3,2-b]pyridin-7-amine] | ***** (≤0.005 μM is indicated by five stars (*****)) | ***** (>4.9 is indicated by five stars (*****))
N[C@H](CF)Cc1sc2c(NCc3cccs3)cc(Cl)nc2c1Br [Compound 63, 2-[(2S)-2-amino-3-fluoropropyl]-3-bromo-5-chloro-N-[(thiophen-2-yl)methyl]thieno[3,2-b]pyridin-7-amine] | *** (between >0.02 μM and ≤0.5 μM is indicated by three stars (***)) | ** (between >1.9 and ≤2.9 is indicated by two stars (**))
N[C@@H](COC(F)(F)F)Cc1sc2c(NCc3nccs3)cc(Cl)nc2c1Br [Compound 64, 2-[(2R)-2-amino-3-(trifluoromethoxy)propyl]-3-bromo-5-chloro-N-[(1,3-thiazol-2-yl)methyl]thieno[3,2-b]pyridin-7-amine] | **** (between >0.005 μM and ≤0.02 μM is indicated by four stars (****)) | ***** (>4.9 is indicated by five stars (*****))
OC[C@@H](Cc1sc2c(NCc3nccs3)cc(Cl)nc2c1Br)NC(F)(F)F [Compound 65, (2R)-3-(3-bromo-5-chloro-7-{[(1,3-thiazol-2-yl)methyl]amino}thieno[3,2-b]pyridin-2-yl)-2-[(trifluoromethyl)amino]propan-1-ol] | *** (between >0.02 μM and ≤0.5 μM is indicated by three stars (***)) | ***** (>4.9 is indicated by five stars (*****))
N[C@H](CF)Cc1sc2c(NCc3nccs3)cc(Cl)nc2c1Br [Compound 66, 2-[(2S)-2-amino-3-fluoropropyl]-3-bromo-5-chloro-N-[(1,3-thiazol-2-yl)methyl]thieno[3,2-b]pyridin-7-amine] | *** (between >0.02 μM and ≤0.5 μM is indicated by three stars (***)) | * (An MFI≤1.9 is indicated by one star (*))
N[C@H](CF)Cc1sc2c(NCc3nccs3)cc(Cl)nc2c1Cl [Compound 67, 2-[(2S)-2-amino-3-fluoropropyl]-3,5-dichloro-N-[(1,3-thiazol-2-yl)methyl]thieno[3,2-b]pyridin-7-amine] | * (An EC2x>1 μM is indicated by one star (*)) | * (An MFI≤1.9 is indicated by one star (*))
Cc1c(C[C@@H](N)CC(C)C)sc2c(NCc3nccs3)cc(Cl)nc12 [Compound 68, 2-[(2S)-2-amino-4-methylpentyl]-5-chloro-3-methyl-N-[(1,3-thiazol-2-yl)methyl]thieno[3,2-b]pyridin-7-amine] | **** (between >0.005 μM and ≤0.02 μM is indicated by four stars (****)) | ***** (>4.9 is indicated by five stars (*****))
N[C@@H](CF)Cc1sc2c(NCc3nccs3)cc(Cl)nc2c1Br [Compound 70, 2-[(2R)-2-amino-3-fluoropropyl]-3-bromo-5-chloro-N-[(1,3-thiazol-2-yl)methyl]thieno[3,2-b]pyridin-7-amine] | ***** (≤0.005 μM is indicated by five stars (*****)) | ***** (>4.9 is indicated by five stars (*****))
N[C@@H](CO)Cc1sc2c(NCc3nccs3)cc(Cl)nc2c1Br [Compound 71, (2R)-2-amino-3-(3-bromo-5-chloro-7-{[(1,3-thiazol-2-yl)methyl]amino}thieno[3,2-b]pyridin-2-yl)propan-1-ol] | ***** (≤0.005 μM is indicated by five stars (*****)) | ***** (>4.9 is indicated by five stars (*****))
C=C[C@H](N)Cc1sc2c(NCc3nccs3)cc(Cl)nc2c1Br [Compound 72, 2-[(2R)-2-aminobut-3-en-1-yl]-3-bromo-5-chloro-N-[(1,3-thiazol-2-yl)methyl]thieno[3,2-b]pyridin-7-amine] | ***** (≤0.005 μM is indicated by five stars (*****)) | ***** (>4.9 is indicated by five stars (*****))
